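Growth conditions: 96-well plates. Treatment: test compound, 48 hours, 5 concentrations. Analysis: linear interpolation between bracketing concentrations; unreached endpoints set to highest concentration. TGI is the concentration that stops growth completely.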 Where a SMILES comes first, the peptide text is derived from it. The star is where a group is joined. Boc = CC(C)(C)OC(=O)*
How the values were obtained:
Experiment in all cases: inhibition of tumour cell growth, NCI panel, 48 h
HL-60(TB) leukemia = tested on: HL-60(TB) leukemia
IGROV1 ovarian = tested on: IGROV1 ovarian
MCF7 breast = tested on: MCF7 breast
MDA-N = tested on: MDA-N
NCI-H226 lung = tested on: NCI-H226 lung
RPMI-8226 leukemia = tested on: RPMI-8226 leukemia
SN12C renal = tested on: SN12C renal
TK-10 renal = tested on: TK-10 renal
U251 CNS = tested on: U251 CNS
UO-31 renal = tested on: UO-31 renal

SMILES	TGI (HL-60(TB) leukemia) [µM]	TGI (IGROV1 ovarian) [µM]	TGI (MCF7 breast) [µM]	TGI (MDA-N) [µM]	TGI (NCI-H226 lung) [µM]	TGI (RPMI-8226 leukemia) [µM]	TGI (SN12C renal) [µM]	TGI (TK-10 renal) [µM]	TGI (U251 CNS) [µM]	TGI (UO-31 renal) [µM]
COCOC1/C=C/CCCC#C[C@H](C)C(=O)CC1 (stereo not given in full)	5.12	22.7	23.1	24.3	35	7.63	23.6	28.6	24.8	28
O=C(O)c1c2c(cc3c1CC1(Cc4ccccc4C1)C3)CCC2	> 100	> 100	> 100	> 100	> 100	> 100	> 100	> 100	> 100	> 100
Cc1nc(-c2ccc([N+](=O)[O-])cc2)cn2c1nc1ccccc12	> 100	> 100	> 100	> 100	> 100	> 100	> 100	> 100	> 100	> 100
C=C1CC(COc2cc(=O)oc3ccccc23)(c2ccccc2)OC1=O (stereo not given)	6.34	3.07	2.14	5.57	19.3	4.01	6.92	3.89	25.3	16
C[N+]1=C2[B-](C(C)(C)C)=[N+](C(C)(C)C)[B-]2(C(C)(C)C)[N+](C)=C2[B-](C(C)(C)C)=[N+](C(C)(C)C)[B-]21C(C)(C)C (stereo not given)	> 100	> 100	> 100	> 100	> 100	> 100	> 100	> 100	> 100	> 100
Cc1ccc([C@@H]2[C@@H](C(=O)c3ccccn3)[C@H](c3ccc(C)cc3)C[C@](O)(c3ccccn3)[C@H]2C(=O)c2ccccn2)cc1	6.92	> 100	> 100	> 28.5	> 100	> 92.6	> 100	> 100	> 100	> 100
O=c1nc(N2CCN(c3ccccc3)CC2)ccn1C1OC(CO)C(O)C1O (stereo not given)	63.5	> 100	> 100	> 100	> 100	> 100	> 100	> 100	> 100	> 100
O=C(O)CN(CCNC(=O)OCC1c2ccccc2-c2ccccc21)CCNC(=O)OCC1c2ccccc2-c2ccccc21	50.1	45.7	40.2	36.7	81.2	76.1	80.1	50.6	38.4	37.5
Cc1c(-c2nc3ccccc3[nH]2)c(=O)n(-c2ccccc2)n1C	> 100	> 100	> 100	> 100	> 100	> 100	> 100	> 100	> 100	> 100
O=C(CN1c2ccccc2Sc2ccccc21)N1CCNCC1	> 100	> 100	> 100	> 100	> 100	> 100	> 100	> 100	> 100	> 100
O=C1C(Cl)=C(N2CCN(C3=C(Cl)C(=O)c4ccccc4C3=O)CC2)C(=O)c2ccccc21	1.26	4.11	3.34	3.29	11.8	14	3.09	3.42	6.19	3.39
COc1cc(O)c(/C=N/N=C(\N)NO)c(OC)c1	> 10	> 10	> 10	> 10	> 10	> 10	> 10	> 10	> 10	> 10
COCOC1/C=C/CCCCC2=C(C)C=C(C1)O2 (stereo not given)	> 100	> 100	> 100	> 100	> 100	> 100	> 100	> 100	> 100	> 100
COC(=O)CNC(=O)C(Cc1ccccc1)NC(=O)C(CCSC)NC(=O)C(Cc1ccc(O)cc1)NC(=O)OC(C)(C)C (stereo not given) (Boc-YMFG-OMe; configuration not given here)	> 100	> 100	> 100	> 100	> 100	50.2	> 100	> 100	> 100	> 100
CCOc1cc(NC(C)=O)ccc1C(=O)NNC(=O)c1ccccc1OC(C)=O	> 42.2	> 100	> 100	> 100	> 59.3	> 28.6	> 91.4	7.03	> 100	> 100
CCCCN1C(=O)CC2[C@@H]3CCc4cc(OC(C)=O)ccc4C3CC[C@]2(C)C1=O (stereo not given in full)	> 10	> 10	> 10	> 10	> 10	> 10	> 10	> 10	> 10	> 10
